Experimental data published in ChEMBL document CHEMBL1201862, “PubChem BioAssay data set” (2004).
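How tested: cells in 96-well plates exposed to compound for 48 hours at five concentrations. Here, GI50 denotes the concentration required for 50% inhibition of growth.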 Active and inactive are the calls of the source. Cut-off read from the data, not from the text of the source: active = GI50 up to about 1.1 µM and inactive = higher.

What was measured:
Test in all cases: DTP human tumour cell line panel, 48 h
786-0 = system: 786-0
A498 = system: A498
ACHN = system: ACHN
CAKI-1 = system: CAKI-1
DLD-1 = system: DLD-1
DMS-273 = system: DMS-273
HL-60 = system: HL-60
HOP-62 = system: HOP-62
HT-29 = system: HT-29
MOLT-4 = system: MOLT-4
Malme-3M = system: Malme-3M
RXF 393 = system: RXF 393
SF-539 = system: SF-539
SK-MEL-5 = system: SK-MEL-5
SW-620 = system: SW-620
UACC-62 = system: UACC-62
COLO 205 = system: COLO 205

| SMILES | GI50 (786-0) | GI50 (A498) | GI50 (ACHN) | GI50 (CAKI-1) | GI50 (DLD-1) | GI50 (DMS-273) | GI50 (HL-60) | GI50 (HOP-62) | GI50 (HT-29) | GI50 (MOLT-4) | GI50 (Malme-3M) | GI50 (RXF 393) | GI50 (SF-539) | GI50 (SK-MEL-5) | GI50 (SW-620) | GI50 (UACC-62) | GI50 (COLO 205) |
| --- | --- | --- | --- | --- | --- | --- | --- | --- | --- | --- | --- | --- | --- | --- | --- | --- | --- |
| CCOC(=O)c1cccc(=O)c(C(=O)OCC)c1 | 63.2 µM (inactive) | > 100 µM (inactive) | 63.7 µM (inactive) | 77.3 µM (inactive) | 40 µM (inactive) | 48.2 µM (inactive) | 26.6 µM (inactive) | 33.3 µM (inactive) | 58.2 µM (inactive) | 35.7 µM (inactive) | 66.1 µM (inactive) | 36.2 µM (inactive) | 26.1 µM (inactive) | 47.8 µM (inactive) | 50.2 µM (inactive) | 34 µM (inactive) |  |
| C=C1C(=O)OC2CCCCC3OC3C12 (stereo unspecified) | 7.19 µM (inactive) | 15.3 µM (inactive) | 11 µM (inactive) | 3.36 µM (inactive) | 7.83 µM (inactive) | 10.3 µM (inactive) | 2.79 µM (inactive) | 21.8 µM (inactive) | 14.4 µM (inactive) | 13.1 µM (inactive) | 10.7 µM (inactive) | 13.4 µM (inactive) | 11.7 µM (inactive) | 3.99 µM (inactive) | 4.06 µM (inactive) | 3.56 µM (inactive) | 3.23 µM (inactive) |
| COc1ccc(C(c2c(O)c3ccccc3n(C)c2=O)c2c(O)c3ccccc3n(C)c2=O)cc1 | 28.1 µM (inactive) |  | 46.5 µM (inactive) | 38.2 µM (inactive) | 37.5 µM (inactive) | 31.2 µM (inactive) | 31.6 µM (inactive) |  | 24.3 µM (inactive) | 35.9 µM (inactive) | 47.2 µM (inactive) | 73.3 µM (inactive) | 24.5 µM (inactive) | 20.2 µM (inactive) | 57.4 µM (inactive) | 13.2 µM (inactive) | 57.3 µM (inactive) |
| CC(C)(C)c1cc(C#N)c2c(c1)C(=O)OC2(c1ccccc1)c1ccccc1C#N (stereo unspecified) | > 100 µM (inactive) | > 100 µM (inactive) | > 100 µM (inactive) | > 100 µM (inactive) | > 100 µM (inactive) | > 100 µM (inactive) | 7.38 µM (inactive) | > 100 µM (inactive) | > 100 µM (inactive) | 23.8 µM (inactive) | > 100 µM (inactive) | > 100 µM (inactive) | > 100 µM (inactive) |  | > 100 µM (inactive) | > 100 µM (inactive) | > 100 µM (inactive) |
| O=C(CSC(=S)N1CCCCC1)Nc1nc2c(s1)CCCC2 | 48.3 µM (inactive) | > 100 µM (inactive) | 50 µM (inactive) |  | 26.9 µM (inactive) | 49.4 µM (inactive) | 12.1 µM (inactive) | 91.4 µM (inactive) | 36.3 µM (inactive) | 11 µM (inactive) | > 100 µM (inactive) |  | 34 µM (inactive) | 18.5 µM (inactive) | 40.7 µM (inactive) |  | 33.3 µM (inactive) |
| O=C(Nc1ccc(Cl)cc1)c1cc([N+](=O)[O-])ccc1O | 3.76 µM (inactive) | 2.47 µM (inactive) | 3.2 µM (inactive) | 4.02 µM (inactive) | 3.71 µM (inactive) | 5.55 µM (inactive) | 2.19 µM (inactive) | 2.49 µM (inactive) | 3.62 µM (inactive) | 2.58 µM (inactive) | 2.13 µM (inactive) | 1.77 µM (inactive) | 3.34 µM (inactive) | 2.8 µM (inactive) | 5.07 µM (inactive) | 2.29 µM (inactive) | 3.27 µM (inactive) |
| O=C1COc2cc(NC(=S)Nc3ccccc3)ccc2N1 | > 100 µM (inactive) |  | > 100 µM (inactive) | > 100 µM (inactive) | > 100 µM (inactive) | > 100 µM (inactive) | > 100 µM (inactive) | > 100 µM (inactive) | > 100 µM (inactive) | > 100 µM (inactive) | > 100 µM (inactive) | > 100 µM (inactive) | > 100 µM (inactive) | > 100 µM (inactive) | > 100 µM (inactive) | > 100 µM (inactive) | > 100 µM (inactive) |
| COc1cc(C(=O)C/C(CCCC(=O)Nc2ccccc2[N+](=O)[O-])=N/NC(=O)c2cc3ccccc3cc2O)ccc1O | 32.4 µM (inactive) | > 100 µM (inactive) | 28.9 µM (inactive) | > 68.9 µM (inactive) | 36.7 µM (inactive) | 15.6 µM (inactive) | 0.556 µM (active) | 94.8 µM (inactive) | 41.9 µM (inactive) | 26.1 µM (inactive) | 29.2 µM (inactive) | > 71 µM (inactive) | 37.9 µM (inactive) | 34.4 µM (inactive) | 46.5 µM (inactive) | 17.6 µM (inactive) | 21.7 µM (inactive) |
| CCCCc1c2c(nc3c1CC/C(=C\c1ccc([N+](=O)[O-])cc1)C3=O)CCCC2 | 1.43 µM (inactive) |  | 1.78 µM (inactive) |  | 1.75 µM (inactive) | 1.76 µM (inactive) |  | 1.73 µM (inactive) | 1.33 µM (inactive) | 1.77 µM (inactive) | 2 µM (inactive) | 1.3 µM (inactive) | 1.79 µM (inactive) |  | 1.69 µM (inactive) | 1.61 µM (inactive) | 2.81 µM (inactive) |
| COc1cc(Oc2c(O)c(C)c(OC)c(C(C)=O)c2O)c(C(C)=O)c(O)c1C | 60.7 µM (inactive) |  | 46.5 µM (inactive) | 60.3 µM (inactive) | 66.7 µM (inactive) | 37.8 µM (inactive) |  | 34.3 µM (inactive) | 71.8 µM (inactive) |  | 42.8 µM (inactive) | 61.9 µM (inactive) | 62.2 µM (inactive) | 35.2 µM (inactive) | 57.3 µM (inactive) | 40.5 µM (inactive) | 60.1 µM (inactive) |
| O=S1(=O)[C@H](c2ccccc2)c2c(-c3ccccc3)sc(-c3ccccc3)c2[C@@H]1c1ccccc1 | 38.9 µM (inactive) |  | > 100 µM (inactive) | > 100 µM (inactive) | > 100 µM (inactive) | > 100 µM (inactive) | > 100 µM (inactive) | > 100 µM (inactive) | > 100 µM (inactive) | > 100 µM (inactive) | 94.2 µM (inactive) | 39.8 µM (inactive) | > 100 µM (inactive) | 71.9 µM (inactive) | > 100 µM (inactive) | > 100 µM (inactive) | > 100 µM (inactive) |
| C/C(=C\CBr)CCC(Br)C(C)(C)Cl (stereo unspecified) | > 100 µM (inactive) |  | > 100 µM (inactive) | > 100 µM (inactive) | > 100 µM (inactive) | > 100 µM (inactive) |  | > 100 µM (inactive) | > 100 µM (inactive) | > 100 µM (inactive) | > 100 µM (inactive) | > 100 µM (inactive) | > 100 µM (inactive) | > 100 µM (inactive) | > 100 µM (inactive) | > 100 µM (inactive) | > 100 µM (inactive) |
| CCCCn1c(-c2ccccc2)cs/c1=N\NC(=O)Cn1c(C)nc2ccccc21 | > 100 µM (inactive) | > 100 µM (inactive) | 75.9 µM (inactive) | 62.5 µM (inactive) | > 100 µM (inactive) | 76 µM (inactive) | 14.4 µM (inactive) | > 100 µM (inactive) | > 100 µM (inactive) | 16.3 µM (inactive) | 35.7 µM (inactive) | 34.3 µM (inactive) | > 100 µM (inactive) | 20.4 µM (inactive) | > 100 µM (inactive) | 58.6 µM (inactive) | 17.1 µM (inactive) |
| COc1ccc(C(=O)C(CO)Oc2ccccc2OC)cc1OC (stereo unspecified) | > 100 µM (inactive) | > 100 µM (inactive) | > 100 µM (inactive) | > 100 µM (inactive) | > 100 µM (inactive) | > 100 µM (inactive) | > 100 µM (inactive) | > 100 µM (inactive) | > 100 µM (inactive) | > 100 µM (inactive) | > 100 µM (inactive) |  | > 100 µM (inactive) | > 100 µM (inactive) | > 100 µM (inactive) | > 100 µM (inactive) | > 100 µM (inactive) |
| CC(C)(C)OC(=O)NC1CCC[C@H]1O (stereo partly specified) | > 100 µM (inactive) | > 100 µM (inactive) | > 100 µM (inactive) | > 100 µM (inactive) | > 100 µM (inactive) | > 100 µM (inactive) |  | > 100 µM (inactive) | > 100 µM (inactive) | > 100 µM (inactive) | 0.265 µM (active) | > 100 µM (inactive) | > 100 µM (inactive) | > 100 µM (inactive) | > 100 µM (inactive) | > 100 µM (inactive) |  |
| O=C(c1ccc(Cl)cc1)c1ccc(OCCSCCCCCCCCCCSCCOc2ccc(C(=O)c3ccc(Cl)cc3)cc2)cc1 | > 100 µM (inactive) | > 100 µM (inactive) | > 100 µM (inactive) | > 100 µM (inactive) | > 100 µM (inactive) | > 100 µM (inactive) | > 100 µM (inactive) | > 100 µM (inactive) | > 100 µM (inactive) | > 100 µM (inactive) | > 100 µM (inactive) | > 100 µM (inactive) |  | > 100 µM (inactive) | > 100 µM (inactive) | > 100 µM (inactive) | > 100 µM (inactive) |
| COc1cc(C(=O)C/C(CCC(=O)Nc2ccc(Cl)cc2C)=N/NC(=O)C(N)=O)ccc1O | > 100 µM (inactive) | > 100 µM (inactive) | > 100 µM (inactive) | > 100 µM (inactive) | > 100 µM (inactive) | > 100 µM (inactive) | > 100 µM (inactive) | > 100 µM (inactive) | > 100 µM (inactive) | > 100 µM (inactive) | > 100 µM (inactive) |  | > 100 µM (inactive) | > 100 µM (inactive) | > 100 µM (inactive) | > 100 µM (inactive) | > 100 µM (inactive) |
